What was measured:
Type in all cases: cell-based
[1] = system: fusion mediated by gp120 of HIV-1 using CXCR4; assay: gp120-mediated cell-cell fusion assay, target cells with CD4 and CXCR4 (colorimetric, OD 570 nm)
Text: (§1) In order to evaluate on which step of the complex HIV-1 replication cycle the compound VII acts according to the present invention, a sophisticated method, schematized in FIG. 2, has been used, specifically only focusing on the entry step of HIV-1 in target cells.
(§2) Briefly, a colorimetric reaction is developed when two populations of properly engineered cells meet and in particular a donor, carrying on the surface the glycoprotein of HIV-1 gp120 and a target, together with the primary receptor CD4 and with one of the co-receptors, CXCR4 or CCR5. In this case there is a fusion of the cells and the polymerase T7 can pass from the donor cell to the target one in which it triggers the transcription of beta-galactosidase with subsequent protein translation. Thus the latter is able to perform its enzymatic action in the presence of the convenient substrate (CPRG, chlorophenol red-3-D galactopyranoside) developing a colorimetric reaction measured by detection of optical density (OD) at 570 nm.
(§3) In the first one, the target cells are mouse fibroblasts (3T3 in FIG. 3 A/B), on the contrary in the second one the target cells are human epithelial cells (HeLa, in FIG. 3 C/D). The graphs show the mean values of the culture triplicate with the standard deviation.

[2] = system: fusion mediated by gp120 of HIV-1 using CCR5; assay: gp120-mediated cell-cell fusion assay, target cells with CD4 and CCR5 (colorimetric, OD 570 nm); details: target cells 3T3 mouse fibroblasts and HeLa human epithelial cells (FIG. 3 B/D)
Text: as §1, §2, §3

[3] = system: HIV-1 IIIB (strain using CXCR4); assay: HIV-1 IIIB replication in PHA-activated peripheral blood mononuclear cells (p24 in supernatant); details: for inhibition of replication of HIV-1 IIIB: PBMC
Description: (§4) The compound (VII) has been tested for its ability to modulate the viral replication of HIV-1, both of a strain using CXCR4 (IIIB) and a strain using CCR5 (Bal) as co-receptor, in addition to the primary receptor CD4.
(§5) For the in-vitro infections primary cells have been used, specifically peripheral blood mononuclear cells from healthy donors pre-activated for 48 hours through a mitogenic stimulus (phytohemagglutinin) to allow for the infection by HIV-1. The cells have been incubated with IIIB and Bal viruses in absence or in presence of scalar concentrations of compound (VII) for 30 minutes at 37° C., then they have been washed to remove the excess virus, plated in triplicate in culture microplates and the compound VII has been re-added to the wells, in the test concentrations. The control culture has been set up in presence of dimethylsulfoxyde (DMSO), the compound in which the compound VII has been dissolved, in order to more correctly evaluate a net effect of the compound. The viral replication has been evaluated by measuring the structural protein of HIV-1 p24 (expressed in ng/ml) by an immune-enzymatic test carried out on the culture supernatants harvested on days 4 and 7 post-infection.
(§6) The graphs show the mean values of the culture triplicate with the standard deviation on post-infection days 4 and 7.

[4] = system: HIV-1 Bal (strain using CCR5); assay: HIV-1 Bal replication in PHA-activated peripheral blood mononuclear cells (p24 in supernatant); details: PBMC
Description: as §4, §5, §6

[5] = 0.1 μM, p24 on days 4 and 7 post-infection (FIG. 1C/D)
[6] = 1 μM, p24 on days 4 and 7 post-infection (FIG. 1C/D)
[7] = 30, 10 and 3 μM, p24 on days 4 and 7 post-infection (FIG. 1A/B)

Cn1cc(NC(=O)c2cc3cc(NC(=O)Nc4ccc5c(c4)cc(C(=O)Nc4cc(C(=O)Nc6ccc7cc(S(=O)(=O)O)cc(S(=O)(=O)O)c7c6)n(C)c4)n5C)ccc3n2C)cc1C(=O)Nc1ccc2cc(S(=O)(=O)O)cc(S(=O)(=O)O)c2c1 [compound (VII)]
relative potency in fusion inhibition, HIV-1 using CXCR4 versus HIV-1 using CCR5 ([1]; comparison of CXCR4 (the latter) with CCR5): more potent against the latter
inhibition of fusion mediated by gp120 of HIV-1 using CXCR4 ([1]; target cells 3T3 mouse fibroblasts and HeLa human epithelial cells (FIG. 3 A/C)): able to inhibit, in a way depending on the concentration
inhibition of fusion mediated by gp120 of HIV-1 using CCR5 [2]: able to inhibit, in a way depending on the concentration
inhibition of replication of HIV-1 IIIB [3, 5]: not more effective
inhibition of replication of HIV-1 IIIB [3, 6]: inhibited completely
inhibition of replication of HIV-1 IIIB [3, 7]: completely inhibited
relative effectiveness in replication inhibition, CXCR4-using versus CCR5-using virus ([3]; comparison of IIIB with Bal at 1 μM): higher effectiveness of the compound against viruses using the chemokine receptor CXCR4
inhibition of replication of HIV-1 Bal [4, 5]: not more effective
inhibition of replication of HIV-1 Bal [4, 6]: almost totally lost the inhibitory ability
inhibition of replication of HIV-1 Bal [4, 7]: completely inhibited
